Our source for the outcome values is PubChem BioAssay AID1205 (EPA DSSTox, 2008).

Calls of active or inactive are those of the source.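 Rule for the calls: active = tumour findings in long-term animal cancer tests in more than one sex, species or organ; inactive = no tumour finding and more than one negative test.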

The series is described as follows: DSSTox (CPDBAS) Carcinogenic Potency Database Summary MultiCellCall Results. The conditions noted are these: animal carcinogenicity bioassays, multi-cell call summary. Put shortly: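 Summary call drawn from chronic long-term cancer bioassays in rats, mice, hamsters, dogs and nonhuman primates, using the most positive result per sex-species. Score: multispecies=50, multisex=30, multisite=20, summed for combinations.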
For the compound `OC[C@H]1O[C@@H]2O[C@H]3[C@H](O)[C@@H](O)[C@@H](O[C@H]4[C@H](O)[C@@H](O)[C@@H](O[C@H]5[C@H](O)[C@@H](O)[C@@H](O[C@H]6[C@H](O)[C@@H](O)[C@@H](O[C@H]7[C@H](O)[C@@H](O)[C@@H](O[C@H]8[C@H](O)[C@@H](O)[C@@H](O[C@H]1[C@H](O)[C@H]2O)O[C@@H]8CO)O[C@@H]7CO)O[C@@H]6CO)O[C@@H]5CO)O[C@@H]4CO)O[C@@H]3CO`, the outcome is “inactive; multisex inactive; multispecies inactive”.

For the compound `Cc1c(N)nc(C)c2c1[nH]c1ccccc12`, the outcome is “active; multisex active; multispecies active”.

With `S=C([S-])NCCNC(=S)[S-].[Zn+2]`, the outcome was “inactive; multisex inactive; multispecies inactive”.

In the case of `Nc1c(Cl)cc(Cl)cc1Cl`, the outcome is “active; multisite active”.

`FC(F)Cl`: the outcome is “inactive; multisex inactive; multispecies inactive”.

On to `CC(C)OC(=O)Nc1ccccc1`, for which the outcome was “inactive; multisex inactive; multispecies inactive”.

As to `c1ccc2c(c1)[nH]c1ccccc12`, the outcome is “active; multisite active; multisex active”.

In the case of `C=CBr`, the outcome was “active; multisite active; multisex active”.

As for `O=[N+]([O-])OCC(CO[N+](=O)[O-])O[N+](=O)[O-]`, the outcome is “active; multisite active; multisex active”.

As for `NC(=S)Nc1cccc2ccccc12`, the outcome is “inactive; multisex inactive”.

For the compound `CC(Oc1cc(Cl)c(Cl)cc1Cl)C(=O)O` (configuration not stated), the outcome is “inactive; multisex inactive”.

As for `CC1(C)S[C@@H]2[C@H](NC(=O)[C@H](N)c3ccccc3)C(=O)N2[C@H]1C(=O)O`, the outcome was “inactive; multisex inactive; multispecies inactive”.

Turning to `CC(=O)OC[C@H]1O[C@H](O[C@]2(COC(C)=O)O[C@H](COC(=O)C(C)C)[C@@H](OC(=O)C(C)C)[C@@H]2OC(=O)C(C)C)[C@H](OC(=O)C(C)C)[C@@H](OC(=O)C(C)C)[C@@H]1OC(=O)C(C)C`, the outcome is “inactive; multisex inactive; multispecies inactive”.

As for `Clc1ccc2c(c1)Oc1ccc(Cl)cc1O2`, the outcome was “inactive; multisex inactive; multispecies inactive”.

With `O=[N+]([O-])c1ccc(-c2nc(N(CCO)CCO)c3ccccc3n2)s1`, the outcome is “active; multisite active”.

On to `CC(/C=C/C=C(\C)C(=O)O[C@@H]1O[C@H](CO[C@@H]2O[C@H](CO)[C@@H](O)[C@H](O)[C@H]2O)[C@@H](O)[C@H](O)[C@H]1O)=C\C=C\C=C(C)\C=C\C=C(/C)C(=O)O[C@@H]1O[C@H](CO[C@@H]2O[C@H](CO)[C@@H](O)[C@H](O)[C@H]2O)[C@@H](O)[C@H](O)[C@H]1O`, for which the outcome was “inactive; multisex inactive”.

In the case of `CCc1ccccc1`, the outcome is “active; multisite active; multisex active; multispecies active”.

In the case of `Nc1ccc(NC(=O)c2ccc(N)cc2)cc1`, the outcome was “inactive; multisex inactive”.

With `C=CCOC(=O)c1ccccc1C(=O)OCC=C`, the outcome was “inactive; multisex inactive; multispecies inactive”.

Take `Cc1cccc(C)c1NC(=O)CN1CCCC1=O`: the outcome is “inactive; multisex inactive; multispecies inactive”.

On to `CCN(Cc1cccc(S(=O)(=O)O)c1)c1ccc(C(=C2C=CC(=[N+](CC)Cc3cccc(S(=O)(=O)O)c3)C=C2)c2ccc(O)cc2S(=O)(=O)[O-])cc1`, for which the outcome was “inactive; multisex inactive; multispecies inactive”.

For the compound `CC(C)NCC(O)c1ccc2ccccc2c1` (configuration not stated), the outcome is “inactive; multisex inactive”.

Turning to `O=C1c2cccc(O)c2C(=O)c2c(O)cccc21`, the outcome is “active; multisite active; multispecies active”.

Turning to `COc1c(Cl)c(Cl)c([N+](=O)[O-])c(Cl)c1Cl`, the outcome is “inactive; multisex inactive; multispecies inactive”.

In the case of `O=C1NCCN1`, the outcome was “inactive; multisex inactive”.

As to `C[C@H](CCc1ccccc1)NC[C@H](O)c1ccc(O)c(C(N)=O)c1`, the outcome was “inactive; multisex inactive”.

For `CC(C)OC(=O)COc1ccc(Cl)cc1Cl`, the outcome was “inactive; multisex inactive”.
